This is an account of results in PMC6801902, “Directed Evolution of Clostridium thermocellum β-Glucosidase A Towards Enhanced Thermostability” (International Journal of Molecular Sciences, 2019).

Assay [1] has as its target C. thermocellum BglA (β-glucosidase A, Clo1313_2020) (Acetivibrio thermocellus, UniProt P26208). Kind of assay: continuous p-nitrophenol release at OD405, nonlinear fit (GraphPad Prism). It is filed as biochemical. The settings on record: 50 mM citrate buffer pH 6.1, 60 °C, 0-25 mM pNPG, 13 nM enzyme; read-out: Wild Type. An excerpt: (§1) continuous p-nitrophenol release at OD405, nonlinear fit (GraphPad Prism) on C. thermocellum BglA (β-glucosidase A, Clo1313_2020)

The target in assay [2] is C. thermocellum BglA (β-glucosidase A, Clo1313_2020) (Acetivibrio thermocellus, UniProt P26208, A17S/K268N, form not given). The assay is described as above. Format: biochemical. The settings on record: 50 mM citrate buffer pH 6.1, 60 °C, 0-25 mM pNPG, 13 nM enzyme; thermostable mutant Mut 1.
Sequence of C. thermocellum BglA (β-glucosidase A, Clo1313_2020) (Acetivibrio thermocellus, UniProt P26208, A17S/K268N, form not given) (P26208 whole entry A17S/K268N, form open): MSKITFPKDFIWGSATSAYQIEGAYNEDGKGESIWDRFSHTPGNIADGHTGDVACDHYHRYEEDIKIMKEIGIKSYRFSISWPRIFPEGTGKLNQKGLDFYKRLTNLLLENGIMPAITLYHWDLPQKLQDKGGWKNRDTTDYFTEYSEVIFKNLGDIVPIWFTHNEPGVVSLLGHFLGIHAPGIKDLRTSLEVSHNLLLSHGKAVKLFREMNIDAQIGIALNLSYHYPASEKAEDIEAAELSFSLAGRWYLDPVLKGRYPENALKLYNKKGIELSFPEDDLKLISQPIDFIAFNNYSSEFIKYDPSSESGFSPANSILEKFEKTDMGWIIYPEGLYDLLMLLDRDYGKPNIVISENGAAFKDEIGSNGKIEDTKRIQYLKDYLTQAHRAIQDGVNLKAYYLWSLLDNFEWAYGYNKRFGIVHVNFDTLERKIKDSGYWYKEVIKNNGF
Source text: as §1

Sequence of C. thermocellum BglA (β-glucosidase A, Clo1313_2020) (Acetivibrio thermocellus, UniProt P26208) (P26208 whole entry): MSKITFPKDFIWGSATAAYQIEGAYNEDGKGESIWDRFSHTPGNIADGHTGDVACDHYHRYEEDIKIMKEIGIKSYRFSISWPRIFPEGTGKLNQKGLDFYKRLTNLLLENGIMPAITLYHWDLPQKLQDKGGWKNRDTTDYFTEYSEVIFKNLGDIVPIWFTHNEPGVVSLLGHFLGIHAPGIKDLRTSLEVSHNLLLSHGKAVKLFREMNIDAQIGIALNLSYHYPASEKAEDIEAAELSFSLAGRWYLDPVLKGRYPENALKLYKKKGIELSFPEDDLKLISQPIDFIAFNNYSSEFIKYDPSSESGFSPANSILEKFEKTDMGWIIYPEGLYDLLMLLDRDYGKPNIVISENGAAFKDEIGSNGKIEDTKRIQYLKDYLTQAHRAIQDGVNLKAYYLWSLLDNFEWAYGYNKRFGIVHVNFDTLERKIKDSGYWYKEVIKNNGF

With `O=[N+]([O-])c1ccc(O[C@@H]2O[C@H](CO)[C@@H](O)[C@H](O)[C@H]2O)cc1` [pNPG, p-nitrophenyl-β-D-glucopyranoside], the Km amounted to 6.7 ± 1.11 mM in assay [1] and 5 ± 0.59 mM in assay [2].
